These results are taken from patent US10383336B2, “Solutions employing herbicides and buffered amine oxides to kill weeds and related methods” (priority 2015, dated 2019).

In test [1] the test system is Grass (mixed types). As to the kind of experiment: Field trial of formulation components, kill rate 1 year after application (TABLE 2, Jun. 14, 2005, near Warren Pa.). It counts as in vivo. The following applies: no herbicide; single component at % weight: Ethylene Glycol 0.07, 5 Mol Borax 0.044, Boric Acid 0.037, Barlox 12 0.305. As for the experimental part: (§1) On Jun. 14, 2005, further trials were conducted near Warren Pa., USA to evaluate the contribution of certain formulation components to herbicide performance from the Jun. 2, 2004 Buffered Amine Oxide system. The same field trial methods were used. The control was distilled water.
(§2) The two herbicides which were tested were 2,4-D and Glyphosate. They were used in concentrations of 50:1 and 200:1. The vegetations tested were raspberry and grass. The components of the various elements employed in the buffered amine oxide formula are expressed in weight percent of the total buffered amine oxide formula. […] The first three components were tested at 200:1 strength with the Ethylene Glycol used alone, the Ethylene Glycol used in combination with 5 Mol Borax and Ethylene Glycol, 5 Mol Borax and Boric Acid used in combination. None of these killed the weeds.
(§3) Where a “0” appears in a block in TABLE 2, this means there were no kills. Where a block is blank, this means that no measurement was taken.

Test [2] relates to Raspberry. The test is described as above. It counts as in vivo. The note with it: no herbicide; single component at % weight: Ethylene Glycol 0.07, 5 Mol Borax 0.044, Boric Acid 0.037, Barlox 12 0.305. Here is the method: as §1, §2, §3

With `OCCO` [Ethylene Glycol], the “Kill Rate % 1 Year After Application, Grass” value in test [1] was found to be 0%. Besides, the “Kill Rate % 1 Year After Application, Raspberry” value in test [2] is on record as 0%.
Turning to `O.O.O.O.O.[Na+].[Na+].[O-]B1OB2OB([O-])OB(O1)O2` [5 Mol Borax], the “Kill Rate % 1 Year After Application, Grass” value in test [1] amounted to 0%. Moreover, the “Kill Rate % 1 Year After Application, Raspberry” value in test [2] was found to be 0%.
For `OB(O)O` [Boric Acid], in test [1], the “Kill Rate % 1 Year After Application, Grass” value came to 0%. For the same compound, the “Kill Rate % 1 Year After Application, Raspberry” value in test [2] stood at 0%.
